Entries after “also recorded” stand apart in the source; their conditions may differ.
Assays:
[1] = system: Rho (MRTF/SRF-regulated gene transcription, SRE-Luciferase); test: SRE-Luciferase reporter, Rho inhibition; assay type: cell-based
Protocol: In the course of these studies, the rho transcription reporter method that uses the rho-specific SRE-Luciferase was developed. This transcriptional reporter method, described in detail therein, was used for screening a small chemical library for possible rho inhibitors (Evelyn et al., Mol Canc. Ther. 6:2249-60, 2007; herein incorporated by reference in its entirety). Additional inhibitors were identified as described below.
CCG-1423 was a cellular IC50 of ˜1 uM to inhibit SRE-Luciferase expression (Evelyn, C. R., Wade, S. M., Wang, Q., Wu, M., Iniguez-Lluhi, J. A., Merajver, S. D., and Neubig, R. R. 2007. CCG-1423: a small-molecule inhibitor of RhoA transcriptional signaling. Mol Cancer Ther 6:2249-2260). It has been used in many labs as a tool compound for blocking MRTF/SRF-regulated gene transcription (Sandbo et al., et al., 2011. Am J Physiol Lung Cell Mol Physiol 301:L656-666; Sandbo, et al., 2009. Am J Respir Cell Mol Biol 41:332-338; Evelyn, et al., 2007. Mol Cancer Ther 6:2249-2260; Sandbo et al., 2013. J Biol Chem 288:15466-15473; Prencipe et al., 2013. Prostate 73:743-753; Sakai et al., 2013. FASEB J 27:1830-1846; Buller et al., 2012. Glia 60:1906-1914; Chong et al., 2012. PLoS One 7:e40966; Jin et al., 2011. J Clin Invest 121:918-929; Mae et al., 2010. Biochem Biophys Res Commun 393:877-882; Evelyn et al., 2010. Bioorg Med Chem Lett 20:665-672; Lu et al., 2009. Curr Med Chem 16:1355-1365). CCG-1423 acts by preventing nuclear accumulation of MRTF (Evelyn et al, supra; Jin et al., supra).

[2] = system: cellular migration; test: Cellular migration; assay type: cell-based; details: FIG. 5
[3] = system: COL1A2 and ACTA2 (αSMA) mRNA; test: LPA-induced COL1A2 and ACTA2 mRNA in NIH-3T3 cells; assay type: cell-based
Description: (§1) A & B) CCG-203971 inhibits LPA-induced COL1A2 and ACTA2 (αSMA) mRNA in NIH-3T3 cells.

[4] = Acute cellular toxicity; assay type: cell-based; details: FIG. 2B; compared with CCG-1423
[5] = In vivo tolerability (general statement); details: compared with CCG-1423
[6] = system: human dermal fibroblasts; test: Myofibroblast differentiation / αSMA staining in dermal fibroblasts (TGFβ-induced normal, SSc); assay type: cell-based; details: for myofibroblast differentiation / phenotype (αSMA): in vitro, TGFβ-stimulated normal human dermal fibroblasts and SSc fibroblasts; for potency to reduce alpha-SMA staining, human primary dermal fibroblasts: 72-hour assay
Protocol: B-D) Human dermal fibroblasts were treated with TGFβ (10 ng/ml) for 3 days with various concentrations of CCG-58150.
as §1

[7] = system: skin fibrosis; test: Bleomycin skin injury (dermal fibrosis) model; assay type: in vivo; details: mouse; 100 mg/kg
Description: Mice are weighed once prior to study start. Dermal fibrosis is induced in Groups 2-5 by daily intradermal injections of bleomycin over 14 days. Group 1 will receive vehicle 1 (PBS) over the same days. Daily therapeutic dosing with either vehicle 2 or CCG-58150 by oral gavage coincide with the intradermal injection study days. Mice are anesthetized using isoflurane during intradermal injections. The back is shaved and the injection site ( 1 cm2) cleaned with three alternating passes of chlorhexidine and warm, sterile saline or water. The periphery of the injection site is circled using a […] marker as a visual aid. Bleomycin is dissolved in sterile PBS at a concentration of 1 mg/ml, sterile filtered, and frozen in aliquots appropriately sized for the daily injections prior to the start of the dosing period. 100 μl of bleomycin or PBS (Vehicle 1) is administered to anesthetized mice by intradermal injection using a 0.5 cc TB syringe with a 27 G needle. Following bleomycin or vehicle administration, test substance (CCG-58150) or vehicle 2 (20% DMSO/30% PEG/50% PBS) is administered by oral gavage at 10 μL/gram of body weight. […] Images are collected on an Evos microscope and skin thickness and intensity of fibrosis of two distinct images from each animal is analyzed using ImageJ. […]

[8] = In vivo pharmacokinetics
[9] = Stability in liver microsomes; assay type: in vitro ADME
[10] = system: CTGF mRNA; test: CTGF mRNA by qRT-PCR in LPA-stimulated NIH3T3 cells; assay type: cell-based
[11] = Preliminary tolerability study in normal mice; assay type: in vivo; details: 10 mg/kg i.p. daily for 2-weeks
Protocol: The experiments shown in FIG. 4 are repeated CCG-58150 and derivatives thereof. A range of doses (0.1, 1, and 10 mg/kg) is used to increase the likelihood of finding a well-tolerated dose that is effective.

[12] = system: Rho (MRTF/SRF-regulated gene transcription, SRE-Luciferase); details: Evelyn et al. 2007; cited from earlier work
[13] = system: peritoneal fibrosis; details: Sakai et al. 2013; cited from earlier work

| SMILES | IC50 [1] | further results |
| --- | --- | --- |
| O=C(O)CCSc1nnc(-c2ccncc2)o1 [compound 123867] | > 100 µM |  |
| Cc1cccc(-c2nnc(SCCC(=O)O)o2)c1 [compound 58146] |  | cellular migration [2]: inhibition of cellular migration; potency in SRE-luciferase ([1]; FIG. 2C, listed as CCG-58146): nM IC50; also recorded: markedly higher potency |
| Cc1cccc(-c2nnc(SCC(=O)O)o2)c1 [compound 123860] | 43 µM |  |
| COc1cc(C)ccc1-c1nnc(SCCC(=O)O)o1 [compound 215201] | 0.023 µM |  |
| O=C(O)CCSc1nnc(-c2cccnc2)o1 [compound 123869] | 87 µM |  |
| O=C(O)CCOc1nnc(-c2ccc(Cl)cc2Cl)s1 [compound 215240] | 24 µM |  |
| O=C(O)CCCc1nnc(-c2ccc(Cl)cc2Cl)o1 [compound 222620] | > 100 µM |  |
| COc1cc(Cl)cc(Cl)c1-c1nnc(SCCC(=O)O)o1 [compound 222687] | 10 µM |  |
| COc1ccc(-c2nnc(SCCC(=O)O)n2C)cc1 [compound 107983] | > 100 µM |  |
| O=C(Nc1ccc(Cl)cc1)C1CCCN(C(=O)c2cccc(-c3ccco3)c2)C1 (stereo not shown) [CCG-203971] |  | LPA-induced COL1A2 and ACTA2 (αSMA) mRNA [3]: inhibits; acute cellular toxicity [4]: less acute cellular toxicity; also recorded: reduced acute cellular toxicity; tolerability in vivo [5]: much better tolerated in vivo; cellular migration [2]: inhibition of cellular migration; potency relative to perfenidone ([6]; FIG. 4C): 100 ×; myofibroblast differentiation / phenotype (αSMA) [6]: reverses the myofibroblast phenotype; also recorded: Suppression of myofibroblast activation; fibrosis in bleomycin skin injury model [7]: prevented fibrosis; also recorded: very strongly significant effect; also recorded: prevents skin fibrosis; hepatic clearance ([8]; in vivo): rapid hepatic clearance; pharmacokinetics (overall) ([8]; in vivo): poor pharmacokinetics; oral absorption ([8]; in vivo, po): low oral absorption |
| COCCNC(=O)CCSc1nnc(-c2ccc(Cl)cc2Cl)o1 [compound 215160] | > 100 µM |  |
| O=C(O)CCCCSc1nnc(-c2ccc(Cl)cc2Cl)o1 [compound 232503, 5-((5-(2,4-dichlorophenyl)-1,3,4-oxadiazol-2-yl)thio)pentanoic acid] | 0.003 µM |  |
| c1ccc(-c2nnc(SCCC3OCCCO3)o2)cc1 [compound 20321] | > 100 µM |  |
| COc1c(Cl)ccc(-c2nnc(SCCC(=O)O)o2)c1Cl [compound 222623] | 0.0086 µM |  |
| Cc1cccc(-c2nnc(SCC(N)=O)o2)c1 [compound 211912] | > 100 µM |  |
| COc1ccc(-c2nnc(SCCC(=O)O)[nH]2)cc1 [compound 215104] | > 100 µM |  |
| CCOC(=O)CSc1nnc(-c2ccc(Cl)cc2Cl)o1 [compound 215028] | > 100 µM |  |
| O=C(O)CCSc1nc(-c2ccccc2)cc(=O)[nH]1 [compound 211914] | > 100 µM |  |
| O=C(O)CCSc1nnc(-c2ccc(F)cc2Cl)o1 [compound 232002] | 0.025 µM |  |
| Cc1occc1-c1nnc(SCCC(=O)O)o1 [compound 123873] | > 100 µM |  |
| COC(=O)CSc1nnc(-c2ccc(C)cc2)o1 [compound 105557] | 5.2 µM |  |
| O=C(O)CCSc1nnc(-c2ccc(Cl)cc2Cl)o1 [compound 58150] | 0.004 µM | cellular migration [2]: inhibition of cellular migration; stability in liver microsomes [9]: highly favorable stability; potency in a 24-hour assay in NIH 3T3 cells ([10]; 24-hour assay): nM potency; IC50 ([10]; Mus musculus, FIG. 3, NIH3T3 cells stimulated with LPA, read-out: IC50, inhibition of expression of endogenous CTGF mRNA): 0.001 µM; potency to reduce alpha-SMA staining, human primary dermal fibroblasts ([6]; listed as CCG-58150): fM-pM; potency to reduce alpha-SMA staining, human primary dermal fibroblasts ([6]; listed as CCG-518150): fM-pM potency; myofibroblast differentiation / phenotype (αSMA) [6]: αSMA inhibition; myofibroblast differentiation / phenotype (αSMA) ([6]; listed as CCG-58150): blocks myofibroblast differentiation at pM concentrations; maximum suppression, inhibition of % αSMA positive cells ([6]; maximum effect): 60%; tolerability [11]: tolerated; blood levels 24 hours after a single oral dose relative to in vitro IC50 ([8]; 24 hours, single oral dose): over 10 fold; pharmacokinetics (overall) ([8]; in vivo): very good in vivo pharmacokinetics |
| Cc1ccc(-c2nnc(SCC(=O)O)o2)cc1 [compound 114898] | 6.7 µM |  |
| O=C(O)CSc1nnc(-c2ccc(Cl)cc2Cl)o1 [compound 215027] | > 100 µM |  |
| CC(C)(C)NC(=O)CSc1nnc(-c2ccc(Cl)cc2Cl)o1 [compound 215029] | > 100 µM |  |
| CCCN(CCC)C(=O)CSc1nnc(-c2cccc(C)c2)o1 [compound 211913] | > 100 µM |  |
| CC(ONC(=O)c1cc(C(F)(F)F)cc(C(F)(F)F)c1)C(=O)Nc1ccc(Cl)cc1 (stereo not shown) [CCG-1423] |  | reduction of SRF-mediated transcription versus ROCK inhibitors [12]: more effective than ROCK inhibitors; activity in peritoneal fibrosis model [13]: in vivo activity |
| O=C(O)CCSc1nc2ccccc2n1Cc1ccccc1 [compound 111085] | > 100 µM |  |
| O=C(O)CCSc1nnc(-c2cccc(Br)c2)o1 [compound 123853] | 6.4 µM |  |
